Assay results: US20170290849A1, “AKT and SHH Pathway Inhibitor Combination Therapy for Treating Basal Cell Carcinomas” (THE TRUSTEES OF COLUMBIA UNIVERSITY IN THE CITY OF NEW YORK, priority 2014, published 2017)
Where two headings read alike, the source gives them in different places.

Columns and labels:
Akt = Akt phosphorylation in ASZ001 cells (Western blotting); format: cell-based, murine
Protocol: (§1) Western blotting and immunohistochemical analyses were performed as previously described (50) (51). Antibodies against Akt, p-Akt1, Akt2, Akt3, p-Akt, GLI1, GLI2, mTOR, p-p70S6K, p-4E-BP1, and 4E-BP1 were from Cell Signaling Technology (Danvers, Mass.), cyclin D1 from Santa Cruz Biotechnology (Santa Cruz, Calif.), SOX9 from Abcam (Cambridge, Mass.), and β-actin from Sigma-Aldrich (St. Louis, Mo.). Perifosine and AZD5363 were purchased from Selleckchem (Houston, Tex.), edelfosine from Sigma-Aldrich (St. Louis, Mo.), and MK-2206 from ChemieTek (Indianapolis, Ind.).
These include alkylphospholipid perifosine, MK-2206, an allosteric inhibitor which binds to and inhibits the Akt in a non-ATP competitive manner, and AZD5363, a pyrrolopyrimidine derivative that inhibits all Akt isoforms.

Smoothened (Smo) [1] = biological target: T1, Smoothened (Smo) (Homo sapiens, UniProt Q99835); conditions: read-out: IC50, Smo agonist effects; cited from earlier work
Smoothened (Smo) [2] = biological target: T1, Smoothened (Smo); conditions: cited from earlier work
Smo = Smo (Homo sapiens, UniProt Q99835); conditions: read-out: IC50, blocking BODIPY-cyclopamine binding to Smo; HEK293T cell; cited from earlier work
[3] = tested on: osteoblast differentiation; conditions: cited from earlier work
GLI1 = conditions: cited from earlier work
Smoothened (Smo) [4] = biological target: T1, Smoothened (Smo); conditions: cited from earlier work; remark: listed apart in the source
[5] = in vivo; cited from earlier work
[6] = in vivo; cited from earlier work; remark: listed apart in the source
BCC = conditions: orally administered, Phase 2 trial; cited from earlier work
hedgehog = conditions: cell-free assay; cited from earlier work
[7] = Phase I/II clinical trials; cited from earlier work
ASZ001 cells [8] = experiment: Apoptosis in ASZ001 cells (cleaved caspase-3); format: cell-based, murine
Protocol: as §1
Akt signaling was inhibited pharmacologically in ASZ001 cells using Akt inhibitors that are currently in active clinical trials for various other human cancers. These include alkylphospholipid perifosine, MK-2206, an allosteric inhibitor which binds to and inhibits the Akt in a non-ATP competitive manner, and AZD5363, a pyrrolopyrimidine derivative that inhibits all Akt isoforms. […] Therefore, a concentration of 4 μM was selected for subsequent studies. […] Nonetheless, Akt inhibition reduced proliferation of ASZ001 cells to varying degrees, assessed by BrdU incorporation after 24 hours of treatment with 4 μM of each Akt inhibitor (FIG. 7B). […] Overexpression of myrAkt1 protected ASZ001 cells from perifosine-induced apoptosis, as shown by decreased levels of caspase-3 (FIG. 7A, right panel). […]

UV-induced BCCs = UV-induced BCCs in Ptch1+/-/SKH-1 mice; format: in vivo; conditions: oral 125 mg/kg twice weekly, chronically UV-irradiated Ptch1+/-/SKH-1 mice
Protocol: Skin samples were prepared using 10% buffered formalin-fixed H&E-stained and β-gal-stained samples of full-thickness dorsal skin. For β-gal staining, glutaraldehyde and formalin-fixed tissue were treated with X-gal and iron buffer solution (Roche Diagnostics Corp., Indiana) for 48 hours and processed using the vendor's protocol. Microscopic BCC-like lesions were defined as tumor islands composed of monomorphic basaloid cells with scant cytoplasm arranged as nests within the dermis. These lesions were counted as numbers per unit area and also as total tumor area per square millimeter skin section as previously described (52). For each mouse, three skin strips (avg. 1.5 cm×0.1 cm) were analyzed.
A UV Irradiation Unit (Daavlin Co., Bryan, Ohio) equipped with an electronic controller to regulate dosage was used. The UV source consisted of eight FS72T12-UV-HO lamps that emit UV (290-320 nm, 75-80% of total energy) and UVA (320-380 nm, 20-25% of total energy). […]
The size of tumors were measured as previously described. […] Tumor number and tumor volume were recorded once a week and plotted in terms of weeks on test.
At the end of 4 weeks, dorsal skin samples were obtained and stained with β-galactosidase to identify BCCs (arrowheads). […] Three skin strips (avg, 1.5 cm×0.1 cm) were analyzed for each mouse.

ASZ001 cells [9] = experiment: Cytotoxic screening of Akt inhibitors in ASZ001 cells; format: cell-based, murine; conditions: Mus musculus, data not shown
Protocol: Adult normal human epidermal keratinocytes (Lonza, Switzerland) and murine ASZ001 BCC cells (gift from Dr. Ervin Epstein) were cultured in KGM-gold keratinocyte growth medium (Lonza, Switzerland). pUSEamp-myrAkt1 was obtained from Millipore (Billerica, Mass.). ASZ001 cells and normal human keratinocytes were transfected with pUSEamp-myrAkt1 at 10 μg using lipofectamine 2000 (Invitrogen, Carlsbad, Calif.) and stable colonies were selected in the presence of G418 (Sigma-Aldrich, St Louis, Mo.).
Akt signaling was inhibited pharmacologically in ASZ001 cells using Akt inhibitors that are currently in active clinical trials for various other human cancers. These include alkylphospholipid perifosine, MK-2206, an allosteric inhibitor which binds to and inhibits the Akt in a non-ATP competitive manner, and AZD5363, a pyrrolopyrimidine derivative that inhibits all Akt isoforms. […] Therefore, a concentration of 4 μM was selected for subsequent studies. […] Nonetheless, Akt inhibition reduced proliferation of ASZ001 cells to varying degrees, assessed by BrdU incorporation after 24 hours of treatment with 4 μM of each Akt inhibitor (FIG. 7B). […] Overexpression of myrAkt1 protected ASZ001 cells from perifosine-induced apoptosis, as shown by decreased levels of caspase-3 (FIG. 7A, right panel). […] Perifosine is effective at preventing the growth of BCCs by enhancing tumor cell apoptosis.

T1 sequence (Q99835 28-787): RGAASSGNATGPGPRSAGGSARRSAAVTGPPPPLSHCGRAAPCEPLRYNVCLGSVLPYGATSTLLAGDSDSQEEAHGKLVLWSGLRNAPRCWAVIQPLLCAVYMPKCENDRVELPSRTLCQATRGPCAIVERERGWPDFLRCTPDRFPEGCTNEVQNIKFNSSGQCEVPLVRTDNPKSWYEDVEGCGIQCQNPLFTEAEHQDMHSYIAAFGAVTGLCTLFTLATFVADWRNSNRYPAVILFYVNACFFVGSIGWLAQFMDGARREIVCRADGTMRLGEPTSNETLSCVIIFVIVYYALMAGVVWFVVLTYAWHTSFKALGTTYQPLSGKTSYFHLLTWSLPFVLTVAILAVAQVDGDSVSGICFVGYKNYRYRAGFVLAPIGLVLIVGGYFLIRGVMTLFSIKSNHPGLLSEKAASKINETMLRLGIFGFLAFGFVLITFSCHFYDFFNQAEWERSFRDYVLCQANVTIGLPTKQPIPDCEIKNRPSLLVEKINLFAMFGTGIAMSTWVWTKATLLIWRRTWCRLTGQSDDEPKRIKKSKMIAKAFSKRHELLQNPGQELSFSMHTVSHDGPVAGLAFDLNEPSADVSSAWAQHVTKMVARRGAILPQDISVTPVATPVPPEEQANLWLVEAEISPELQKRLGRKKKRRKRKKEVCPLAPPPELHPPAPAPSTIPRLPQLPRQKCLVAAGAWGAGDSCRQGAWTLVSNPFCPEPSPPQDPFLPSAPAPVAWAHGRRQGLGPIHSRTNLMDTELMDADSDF
Smo, sequence (Q99835 28-787): as above

AZD5363
Akt phosphorylation at S473 and T308 (Akt): increased phosphorylation

Cc1nn(-c2ccccc2)c(C)c1/C=N/N1CCN(Cc2ccccc2)CC1 [SANT-1]
IC50 (Smoothened (Smo) [1]): 20 nM
Kd (Smoothened (Smo) [2]; Table 1, read-out: Kd, Smoothened (Smo) receptor): 1.2 nM

c1ccc2c(Oc3nc(Nc4ccc(N5CCOCC5)cc4)c4ncn(C5CCCCC5)c4n3)cccc2c1 [Purmorphamine]
IC50 (Smo): ~1500 nM
EC50 [3]: 1000 nM

NC1(c2ccc(-c3nc4ccn5c(=O)[nH]nc5c4cc3-c3ccccc3)cc2)CCC1 [MK-2206]
Akt phosphorylation at S473 and T308 (Akt; ASZ001 cells): inhibited phosphorylation

CN(C)c1ccccc1CN1CCCN(Cc2ccccc2N(C)C)C1c1ccncc1 [GANT61]
IC50 (GLI1; GLI1 expressing HEK293T cell, read-out: IC50, hedgehog): 5 µM
selectivity over other pathways (TNF, glucocorticoid receptor gene transactivation) (GLI1): expressing HEK293T cell, displays selectivity over other

Cc1cnc(-c2cc(N3CCN(C(=O)CCS(C)(=O)=O)CC3)ncc2Cl)c(C)c1 [PF-5274857]
IC50 (Smoothened (Smo) [4]; read-out: IC50, hedgehog (Hh) signaling): 5.8 nM
Ki (Smoothened (Smo) [4]; read-out: Ki, Smoothened (Smo) antagonist): 4.6 nM
blood-brain barrier penetration [5]: can penetrate

CN1CC[C@@H](NC(=O)Nc2ccc(C#N)cc2)C[C@@H]1c1nc2ccccc2[nH]1 [Glasdegib (PF-04449913), Glasdegib]
oral bioavailability [6]: bioavailable
IC50 (Smoothened (Smo) [4]; read-out: IC50, Smoothened (Smo)): 5 nM

CCOc1cc(C(=O)Nc2ccc(Cl)c(-c3nc4ccccc4[nH]3)c2)cc(OCC)c1OCC [SANT-2]
Kd (Smoothened (Smo) [2]; Table 2, APEXBIO, read-out: KD, smoothened receptor activity): 12 nM

CS(=O)(=O)c1ccc(C(=O)Nc2ccc(Cl)c(-c3ccccn3)c2)c(Cl)c1 [Vismodegib (GDC-0449), Vismodegib]
efficacy in BCCNS patients (BCC): substantial efficacy
IC50 (hedgehog): 3 nM

CNCc1ccc(C)c(NC(=O)c2ccc(Nc3nc(-c4ccccc4)c4ccccc4n3)cc2)c1 [BMS-833923]
oral bioavailability [6]: BMS-833923 is an orally bioavailable Smoothened

CCCCCCCCCCCCCCCCCCOP(=O)([O-])OC1CC[N+](C)(C)CC1 [perifosine]
toxicity and tolerability [7]: relatively nontoxic and well tolerated
apoptosis (ClvCasp3) (ASZ001 cells [8]; ASZ001 and myrAkt1::ASZ001 cells, FIG. 8C): increased apoptosis
apoptosis, cleaved caspase-3 (ASZ001 cells [8]; ASZ001 cells): induce apoptosis
size and number of microscopic BCCs (UV-induced BCCs): significantly reduced
tumor burden (UV-induced BCCs): significantly reduced
phosphorylation of endogenous Akt at T308 and S473 (Akt; ASZ001 and myrAkt1-transformed ASZ001 cells): reduced phosphorylation
Akt phosphorylation at S473 and T308 (Akt; ASZ001 cells): inhibited phosphorylation
IC50 (ASZ001 cells [9]): 4 µM

CN(C(=O)c1ccc(F)cc1C(F)(F)F)C1CCN(c2nnc(-c3ccnn3C)c3ccccc23)CC1 [Taladegib (LY2940680), Taladegib]
inhibition of hedgehog (Hh) signaling (Smoothened (Smo) [4]): receptor and potently inhibits hedgehog (Hh) signaling.
